Tested on: 349418-098-R-PDC complex spheroid growth
Test: Anticancer human tumor 349418-098-R-PDC patient-derived lung adenocarcinoma cell line growth inhibition [AhR]
Conditions: for IC50: curve of first compound; for viability, T/C: stronger effect = lower value
How it was run: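 Spheroids combined tumor cells with HUVEC endothelial cells and human MSCs as stroma. AhR antagonists were paired with standard or investigational drugs, each dosed in half-log steps down from near clinical Cmax, or from 10 microM where Cmax was unknown.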

[1] = second compound 0.1 µM, first compound 0.0316 µM
[2] = second compound 0.1 µM, first compound 0.1 µM
[3] = second compound 0.1 µM, first compound 0.316 µM
[4] = second compound 0.1 µM, first compound 1 µM
[5] = second compound 0.1 µM, first compound 3.16 µM
[6] = second compound 0.1 µM, first compound 10 µM
[7] = second compound 0.316 µM, first compound 0.0316 µM
[8] = second compound 0.316 µM, first compound 0.1 µM
[9] = second compound 0.316 µM, first compound 0.316 µM
[10] = second compound 0.316 µM, first compound 1 µM
[11] = second compound 0.316 µM, first compound 3.16 µM
[12] = second compound 0.316 µM, first compound 10 µM
[13] = second compound 1 µM, first compound 0.0316 µM
[14] = second compound 1 µM, first compound 0.1 µM
[15] = second compound 1 µM, first compound 0.316 µM
[16] = second compound 1 µM, first compound 1 µM
[17] = second compound 1 µM, first compound 3.16 µM
[18] = second compound 1 µM, first compound 10 µM
[19] = second compound 3.16 µM, first compound 0.0316 µM
[20] = second compound 3.16 µM, first compound 0.1 µM
[21] = second compound 3.16 µM, first compound 0.316 µM
[22] = second compound 3.16 µM, first compound 1 µM
[23] = second compound 3.16 µM, first compound 3.16 µM
[24] = second compound 3.16 µM, first compound 10 µM
[25] = second compound 10 µM, first compound 0.0316 µM
[26] = second compound 10 µM, first compound 0.1 µM
[27] = second compound 10 µM, first compound 0.316 µM
[28] = second compound 10 µM, first compound 1 µM
[29] = second compound 10 µM, first compound 3.16 µM
[30] = second compound 10 µM, first compound 10 µM
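Further: spheroids exposed to agents for seven days before luminescence viability read.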
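Wherever viability, T/C is given: spheroids also contain HUVEC endothelial cells and human MSC stroma.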

## CC(C)c1c(-c2ccccc2)nc2c(C#N)c[nH]n2c1=O + Cc1ccccc1N=Nc1ccc(NC(=O)c2ccnn2C)c(C)c1
Second compound 0.1 µM
  IC50: > 10000 nM
Second compound 0.316 µM
  IC50: > 10000 nM
Second compound 1 µM
  IC50: > 10000 nM
Second compound 3.16 µM
  IC50: > 10000 nM
Second compound 10 µM
  IC50: > 10000 nM
[1]
  viability, T/C: 79.3%
[2]
  viability, T/C: 85.6%
[3]
  viability, T/C: 95.2%
[4]
  viability, T/C: 98%
[5]
  viability, T/C: 78%
[6]
  viability, T/C: 76.5%
[7]
  viability, T/C: 88.2%
[8]
  viability, T/C: 87.3%
[9]
  viability, T/C: 86.2%
[10]
  viability, T/C: 88.7%
[11]
  viability, T/C: 80%
[12]
  viability, T/C: 84.7%
[13]
  viability, T/C: 91.6%
[14]
  viability, T/C: 79.8%
[15]
  viability, T/C: 88.8%
[16]
  viability, T/C: 91.4%
[17]
  viability, T/C: 79.9%
[18]
  viability, T/C: 58.7%
[19]
  viability, T/C: 81.7%
[20]
  viability, T/C: 89.9%
[21]
  viability, T/C: 85.2%
[22]
  viability, T/C: 85.7%
[23]
  viability, T/C: 53.9%
[24]
  viability, T/C: 62.4%
[25]
  viability, T/C: 47.5%
[26]
  viability, T/C: 58.1%
[27]
  viability, T/C: 59.1%
[28]
  viability, T/C: 50.4%
[29]
  viability, T/C: 44.7%
[30]
  viability, T/C: 57.1%

## CC1COCCN1c1cc(-c2ccnn2C)c2ccnc(-c3ccn[nH]3)c2n1 (stereo not given) + Cc1ccccc1N=Nc1ccc(NC(=O)c2ccnn2C)c(C)c1
Second compound 0.1 µM
  IC50: 71.3 nM
Second compound 0.316 µM
  IC50: 102 nM
Second compound 1 µM
  IC50: 72.5 nM
Second compound 3.16 µM
  IC50: 70.7 nM
Second compound 10 µM
  IC50: 39.1 nM
Second compound 0.1 µM, first compound 0.00316 µM
  viability, T/C: 84.5%
Second compound 0.1 µM, first compound 0.01 µM
  viability, T/C: 96.5%
[1]
  viability, T/C: 61%
[2]
  viability, T/C: 47.9%
[3]
  viability, T/C: 13.9%
[4]
  viability, T/C: 10.5%
Second compound 0.316 µM, first compound 0.00316 µM
  viability, T/C: 64.4%
Second compound 0.316 µM, first compound 0.01 µM
  viability, T/C: 96.8%
[7]
  viability, T/C: 81%
[8]
  viability, T/C: 50.3%
[9]
  viability, T/C: 15.6%
[10]
  viability, T/C: 10.4%
Second compound 1 µM, first compound 0.00316 µM
  viability, T/C: 107%
Second compound 1 µM, first compound 0.01 µM
  viability, T/C: 111%
[13]
  viability, T/C: 78.6%
[14]
  viability, T/C: 39.4%
[15]
  viability, T/C: 15.8%
[16]
  viability, T/C: 11.3%
Second compound 3.16 µM, first compound 0.00316 µM
  viability, T/C: 61.6%
Second compound 3.16 µM, first compound 0.01 µM
  viability, T/C: 78.2%
[19]
  viability, T/C: 76.2%
[20]
  viability, T/C: 40.5%
[21]
  viability, T/C: 18.6%
[22]
  viability, T/C: 11.9%
Second compound 10 µM, first compound 0.00316 µM
  viability, T/C: 60.4%
Second compound 10 µM, first compound 0.01 µM
  viability, T/C: 61.9%
[25]
  viability, T/C: 55.4%
[26]
  viability, T/C: 26.9%
[27]
  viability, T/C: 17.3%
[28]
  viability, T/C: 12.9%

## COc1ccc([C@@H](O)c2cc(-c3ncnc4cc(N5CCOCC5)ccc34)c(F)cc2Cl)nn1 + Cc1ccccc1N=Nc1ccc(NC(=O)c2ccnn2C)c(C)c1
Second compound 0.1 µM
  IC50: 1460 nM
Second compound 0.316 µM
  IC50: 816 nM
Second compound 1 µM
  IC50: 945 nM
Second compound 3.16 µM
  IC50: 775 nM
Second compound 10 µM
  IC50: 356 nM
[1]
  viability, T/C: 96.9%
[2]
  viability, T/C: 102%
[3]
  viability, T/C: 76.2%
[4]
  viability, T/C: 62.8%
[5]
  viability, T/C: 29.8%
[6]
  viability, T/C: 11.7%
[7]
  viability, T/C: 76.4%
[8]
  viability, T/C: 99.5%
[9]
  viability, T/C: 63.1%
[10]
  viability, T/C: 47.3%
[11]
  viability, T/C: 23.1%
[12]
  viability, T/C: 11%
[13]
  viability, T/C: 74.1%
[14]
  viability, T/C: 91.7%
[15]
  viability, T/C: 81.6%
[16]
  viability, T/C: 45.5%
[17]
  viability, T/C: 28.2%
[18]
  viability, T/C: 12%
[19]
  viability, T/C: 73.8%
[20]
  viability, T/C: 77.2%
[21]
  viability, T/C: 58%
[22]
  viability, T/C: 49.4%
[23]
  viability, T/C: 25.1%
[24]
  viability, T/C: 12.7%
[25]
  viability, T/C: 63.2%
[26]
  viability, T/C: 45.6%
[27]
  viability, T/C: 58.6%
[28]
  viability, T/C: 31.9%
[29]
  viability, T/C: 21.3%
[30]
  viability, T/C: 10%

## O=C(C=Cn1cnc(-c2cc(C(F)(F)F)cc(C(F)(F)F)c2)n1)NNc1cnccn1 + Cc1ccccc1N=Nc1ccc(NC(=O)c2ccnn2C)c(C)c1
Second compound 0.1 µM
  IC50: 17.6 nM
Second compound 0.316 µM
  IC50: < 9.49 nM
Second compound 1 µM
  IC50: < 9.49 nM
Second compound 3.16 µM
  IC50: < 9.49 nM
Second compound 10 µM
  IC50: < 9.49 nM
Second compound 0.1 µM, first compound 0.00949 µM
  viability, T/C: 67.2%
Second compound 0.1 µM, first compound 0.03 µM
  viability, T/C: 35.2%
Second compound 0.1 µM, first compound 0.0949 µM
  viability, T/C: 17.2%
Second compound 0.1 µM, first compound 0.3 µM
  viability, T/C: 11.2%
Second compound 0.1 µM, first compound 0.949 µM
  viability, T/C: 9.1%
Second compound 0.1 µM, first compound 3 µM
  viability, T/C: 7.11%
Second compound 0.316 µM, first compound 0.00949 µM
  viability, T/C: 37.7%
Second compound 0.316 µM, first compound 0.03 µM
  viability, T/C: 25.4%
Second compound 0.316 µM, first compound 0.0949 µM
  viability, T/C: 16.2%
Second compound 0.316 µM, first compound 0.3 µM
  viability, T/C: 12.2%
Second compound 0.316 µM, first compound 0.949 µM
  viability, T/C: 10.2%
Second compound 0.316 µM, first compound 3 µM
  viability, T/C: 5.73%
Second compound 1 µM, first compound 0.00949 µM
  viability, T/C: 37.8%
Second compound 1 µM, first compound 0.03 µM
  viability, T/C: 29.9%
Second compound 1 µM, first compound 0.0949 µM
  viability, T/C: 19.4%
Second compound 1 µM, first compound 0.3 µM
  viability, T/C: 11.9%
Second compound 1 µM, first compound 0.949 µM
  viability, T/C: 8.42%
Second compound 1 µM, first compound 3 µM
  viability, T/C: 5.99%
Second compound 3.16 µM, first compound 0.00949 µM
  viability, T/C: 47.9%
Second compound 3.16 µM, first compound 0.03 µM
  viability, T/C: 33.7%
Second compound 3.16 µM, first compound 0.0949 µM
  viability, T/C: 16.9%
Second compound 3.16 µM, first compound 0.3 µM
  viability, T/C: 11.4%
Second compound 3.16 µM, first compound 0.949 µM
  viability, T/C: 8.44%
Second compound 3.16 µM, first compound 3 µM
  viability, T/C: 7.46%
Second compound 10 µM, first compound 0.00949 µM
  viability, T/C: 34.6%
Second compound 10 µM, first compound 0.03 µM
  viability, T/C: 22.8%
Second compound 10 µM, first compound 0.0949 µM
  viability, T/C: 18.5%
Second compound 10 µM, first compound 0.3 µM
  viability, T/C: 13.8%
Second compound 10 µM, first compound 0.949 µM
  viability, T/C: 9.78%
Second compound 10 µM, first compound 3 µM
  viability, T/C: 7.95%

Source: PubChem BioAssay AID1918996 (Molecular Pharmacology Branch, DTP, NCI, 2023)
